# In US9066945B2, “Ectoparasiticidal active substance combinations” (Bayer Intellectual Property GmbH, priority 2010, dated 2015):
# Tested on: adult fleas (Ctenocephalides felis)
# Assay: In vitro contact test with fleas (coated test tubes)
# Details: B-11 alone
# Source text: According to S. R. Colby, Weeds 15 (1967), 20-22, the expected action for a given combination of two active compounds can be calculated as follows: if • X is the kill rate, expressed in % of the untreated control, when employing active compound A at an application rate of m g/ha or in a concentration of m ppm, • Y is the kill rate, expressed in % of the untreated control, when employing active compound B at an application rate of n g/ha or in a concentration of n ppm and • E is the kill rate, expressed in % of the untreated control, when employing active compounds A and B at application rates of m and n g/ha or in a concentration of m and n ppm, • then
# In this case, the actually observed kill rate must exceed the value calculated using the above formula for the expected kill rate (E).
# In vitro contact tests with ticks and fleas
# From Table 1, representatives of important classes of active compounds (component B) were now tested in combination with pyrazine derivatives of the formula (I) according to the invention as component A against arachnids and insects. To this end, roll-necked test tubes were coated with a solution of active compound A or B or a combination of the two in acetone (2 h of swing rotation at 30 rpm in a fume cupboard). […]
substance,measurement,value
demiditraz [B-11],insecticidal activity in the contact test method,no insecticidal activity
